Data on seven compounds can be found in EP1117659B1, “SUBSTITUTED 3-CYANOQUINOLINES AS PROTEIN TYROSINE KINASES INHIBITORS” (Wyeth Holdings Corporation, priority 1998, dated 2000).

Series [1] relates to A2780. The series is described as follows: Inhibition of Cancer Cell Growth as Measured by Cell Number (Sulforhodamine B). The format is cell-based. Conditions: Homo sapiens, 48 hours exposure. How it is done: (§1) Human tumor cell lines were plated in 96-well plates (250 µl/well, 1-6 x 10^4 cells/ml) in RPMI 1640 medium, containing 5% FBS (Fetal Bovine Serum). […] After 48 hours exposure to test compounds, cells were fixed with trichloroacetic acid, and stained with Sulforhodamine B. After washing with trichloroacetic acid, bound dye was solubilized in 10 mM Tris base and optical density was determined using plate reader. Under conditions of the assay the optical density is proportional to the number of cells in the well. […] The test procedure is described in details by Philip Skehan et. al, J.Natl. Canc. Inst., 82, 1107-1112 (1990). […] Information about some of the cell lines used in these test procedures is available from the American Type Tissue Collection: Cell Lines and Hybridomas, 1994 Reference Guide, 8th Edition.

Series [2] deals with DDP. Described as above. The format is cell-based. Conditions: Homo sapiens; 48 hours exposure. How it is done: as §1
The subject of series [3] is Human Colon Carcinoma SW620. The series is described as follows: In Vivo Inhibition of the Growth of Human Colon Carcinoma SW620 in mice. Conditions: for S/T = No. Survivors/No. Treated on Day +21 post tumor staging / %T/C Day 7 / %T/C Day 14 / Relative Tumor Growth Day 14 / %T/C Day 21 / Relative Tumor Growth Day 21 / Relative Tumor Growth Day 7: days 1 through 20; for tumor growth was inhibited by: 30 mg/kg i.p. during days 1-20. How it is done: A unit of 7 X 10^6 cells were injected SC into mice. […] Control animals received vehicle only. Tumor mass was determined every 7 days [(length X width^2)/2] for 28 days post staging.

The test system of series [4] is MDA-MB-435. The series is described as follows: Inhibition of Cancer Cell Growth as Measured by Cell Number (Sulforhodamine B). The format is cell-based, Human. Conditions: Homo sapiens, MDA-MB-435, 48 h, 48 hours exposure. How it is done:
as §1

Series [5] relates to SK-BR3. The description is as above. Conditions: Homo sapiens, SK-BR-3, 48 h, 48 hours exposure. Format: cell-based, Human. How it is done:
as §1

The subject of series [6] is SW620. Described as above. The format is cell-based, Human. Conditions: Homo sapiens, SW-620, 48 h, 48 hours exposure. How it is done:
as §1

The test system of series [7] is A431. The series is described as above. Format: cell-based, Human. Conditions: Homo sapiens, A-431, 48 h, 48 hours exposure. How it is done:
as §1

Series [8] deals with T1, Kinase insert Domain containing Receptor (KDR: the catalytic domain of the VEGF receptor) (Homo sapiens, UniProt P35968).
T1 construct: KDR: the catalytic domain of the VEGF receptor
T1 sequence (P35968 834-1162 limits assumed): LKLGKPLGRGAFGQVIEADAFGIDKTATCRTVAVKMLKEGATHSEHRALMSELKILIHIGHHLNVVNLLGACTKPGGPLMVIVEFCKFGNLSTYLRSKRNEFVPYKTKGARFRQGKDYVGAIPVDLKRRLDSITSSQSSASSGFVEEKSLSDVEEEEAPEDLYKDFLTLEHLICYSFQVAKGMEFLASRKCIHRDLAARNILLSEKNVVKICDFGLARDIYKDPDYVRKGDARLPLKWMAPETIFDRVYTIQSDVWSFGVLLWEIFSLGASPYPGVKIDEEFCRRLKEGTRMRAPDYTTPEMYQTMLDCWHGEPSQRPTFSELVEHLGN
The series is described as follows: Inhibition of Kinase insert Domain containing Receptor (KDR), radioactive phosphorylation of Glu:Tyr copolymer. Format: biochemical. Conditions: IC50, substrate phosphorylation. An outline of the steps: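 Radiometric read-out: acid-precipitable 32P/33P from labelled ATP on an E:Y 4:1 copolymer, ATP added to start. KDR catalytic domain was incubated with compound, Mg++ and vanadate phosphatase blocker, buffered at pH 7.2; compounds may have several replicate entries.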

The target of series [9] is Epithelial Cell Kinase (ECK) (Homo sapiens, UniProt P29317). The experiment in a line: Inhibition of Epithelial Cell Kinase (ECK), immobilized biotinylated peptide, HRP anti-phosphotyrosine readout. The format is biochemical. Conditions: IC50, substrate phosphorylation. An outline of the steps:
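Biotinylated peptide substrate immobilized on neutravidin plates, reacted with ECK, test drug, Mg++ and sodium vanadate at pH 7.2; ATP added to start phosphorylation. After washing, phosphopeptide detected with HRP-conjugated anti-phosphotyrosine antibody, HRP activity reflecting substrate phosphorylation. Repeat entries are separate tests of the same compound.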

The target in series [10] is Recombinant human MEK 1 (MAPKK) / recombinant human ERK2 (MAPK) (Mek-Erk) (Homo sapiens, UniProt P28482+Q02750). The experiment in a line: Mitogen Activated Protein Kinase (MAPK) assay, two component coupled Mek-Erk test. Format: biochemical. Conditions: read-out: Mek-Erk.
Sequence of Recombinant human MEK 1 (MAPKK) / recombinant human ERK2 (MAPK) (Mek-Erk) (P28482 2-360): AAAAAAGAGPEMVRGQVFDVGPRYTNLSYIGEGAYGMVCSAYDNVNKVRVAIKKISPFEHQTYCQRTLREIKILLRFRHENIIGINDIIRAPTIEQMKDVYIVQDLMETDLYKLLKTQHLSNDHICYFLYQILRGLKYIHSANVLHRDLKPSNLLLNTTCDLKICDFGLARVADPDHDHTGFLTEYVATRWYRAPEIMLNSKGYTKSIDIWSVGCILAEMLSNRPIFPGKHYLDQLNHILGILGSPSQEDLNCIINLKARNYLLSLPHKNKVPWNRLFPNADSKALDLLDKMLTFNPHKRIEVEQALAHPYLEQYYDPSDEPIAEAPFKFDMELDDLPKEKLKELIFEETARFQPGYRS
Sequence of Recombinant human MEK 1 (MAPKK) / recombinant human ERK2 (MAPK) (Mek-Erk) (Q02750 whole entry): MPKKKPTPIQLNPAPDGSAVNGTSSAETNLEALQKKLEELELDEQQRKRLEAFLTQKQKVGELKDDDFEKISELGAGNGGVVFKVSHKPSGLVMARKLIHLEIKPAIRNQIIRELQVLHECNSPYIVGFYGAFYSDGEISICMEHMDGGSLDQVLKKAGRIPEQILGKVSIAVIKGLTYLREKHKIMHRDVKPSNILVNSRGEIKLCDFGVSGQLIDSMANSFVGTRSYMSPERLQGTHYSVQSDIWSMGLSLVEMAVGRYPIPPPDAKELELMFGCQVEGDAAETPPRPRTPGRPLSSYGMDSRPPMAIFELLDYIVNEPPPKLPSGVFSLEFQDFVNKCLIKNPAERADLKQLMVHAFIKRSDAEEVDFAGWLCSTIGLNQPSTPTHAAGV
Experimental: To evaluate inhibitors of the MAP (mitogen activated protein) kinase a two component coupled standard pharmacological test procedure, which measures phosphorylation of a serine/threonine residue in an appropriate sequence in the substrate in the presence and absence of a putative inhibitor, was used. Recombinant human MEK 1 (MAPKK) was first used to activate recombinant human ERK2 (MAPK) and the activated MAPK (ERK) was incubated with substrate (MBP peptide or MYC peptide) in the presence of ATP, Mg^+2 and radiolabeled ^33P ATP. The phosphorylated peptide was captured on a P 81 phosphocellulose filter (paper filter or embedded in microtiter plate) washed and counted by scintillation methods.
The peptide substrates used in the assay are MBP, peptide substrate ([sequence]), or synthetic Myc substrate, ([sequence]•5 TFA. The recombinant enzymes used were prepared as GST fusion proteins of human ERK 2 and human MEK 1. Inhibitor samples were prepared as 10X stocks in 10% DMSO and an appropriate aliquot was used to deliver either 10 ug/ml for a single point screening dose or 100, 10, 1, and 0.1 uM final concentration for a dose response curve. Final DMSO concentrations were less than or equal to 1%.
The reaction was run as follows in 50 mM Tris kinase buffer, pH 7.4 in a reaction volume of 50 ul. The appropriate volume of kinase buffer and inhibitor sample was added to the tube. Appropriate dilution of enzyme was delivered to give 2-5 ug recombinant MAPK (Erk ) per tube. The inhibitor was incubated with MAPK (Erk) for 30 min at 0° C. Recombinant Mek (MAPKK) ( 0.5-2.5 ug) or fully activated Mek (0.05-0.1 units) was added to activate the Erk and incubated for 30 min at 30° C. Then substrate and gamma ^33P ATP was were added to give a final concentration of 0.5- 1 mM MBPP or 250-500 uM Myc; 0.2-0.5 uCi gamma P 33 ATP/tube; 50 µM ATP final concentration. Samples were incubated at 30°C for 30 minutes and the reaction was stopped by adding 25 µl of ice cold 10 %TCA .After samples were chilled on ice for 30 min, 20 µl of sample was transferred onto P 81 phosphocellulose filter paper or appropriate MTP with embedded P 81 filter. Filter papers or MTP were washed 2 times with a large volume of 1% acetic acid, then 2 times with water. The filters or MTP were briefly air dried before addition of scintillant and samples were counted in the appropriate scintillation counter set up for reading ^33P isotope.
The raw data was captured as cpm. Sample replicates were averaged and corrected for background count. Mean cpm data was tabulated by group and % inhibition by a test compound was calculated as (corrected cpm control- corrected. cpm sample/control) X 100 = % inhibition.
Series [11] deals with 3T3. The series is described as follows: Inhibition of Cancer Cell Growth as Measured by Cell Number (Sulforhodamine B). The format is cell-based. Conditions: Mus musculus, NIH3T3; 48 hours exposure. How it is done: as §1
The test system of series [12] is 3T3/c-erbb2. The series is described as above. The format is cell-based. Conditions: 48 hours exposure. How it is done: as §1
Series [13] has as its target T2, epidermal growth factor receptor kinase (EGF-R Kinase, recombinant enzyme; His-tagged cytoplasmic domain of EGFR) (Homo sapiens, UniProt P00533).
T2 construct: EGFR cDNA encoding amino acids 645 - 1186 preceded by Met-Ala-(His)6; Met-Ala-(His)6 (N); made in house; host or cells: Sf9 insect cells, recombinant baculovirus vHcEGFR52
The experiment in a line: Inhibition of Epidermal Growth Factor Receptor Kinase (EGF-R) using recombinant enzyme, RR-SRC peptide phosphorylation, 33P-ATP. Format: biochemical. Conditions: for inhibition at 0.5 µM: read-out: %Inh @ 0.5 µM; for IC50: recombinant enzyme, 90 min at room temperature. Put shortly: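 His-tagged EGFR cytoplasmic domain (aa 645–1186, baculovirus/Sf9) preincubated with compound 10 min on ice, then RR-SRC peptide (80 µM final) and γ-33P-ATP added. Reaction run 90 min at room temperature; peptide-bound 33P counted on P81 filters, background-corrected. IC50 from dose-response of ≥3 concentrations.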

Values after ≈ are worked out from the molar mass of the structure shown. Bounds are passed on as bounds.

Sequence of Epithelial Cell Kinase (ECK) (P29317 24-976, species assumed): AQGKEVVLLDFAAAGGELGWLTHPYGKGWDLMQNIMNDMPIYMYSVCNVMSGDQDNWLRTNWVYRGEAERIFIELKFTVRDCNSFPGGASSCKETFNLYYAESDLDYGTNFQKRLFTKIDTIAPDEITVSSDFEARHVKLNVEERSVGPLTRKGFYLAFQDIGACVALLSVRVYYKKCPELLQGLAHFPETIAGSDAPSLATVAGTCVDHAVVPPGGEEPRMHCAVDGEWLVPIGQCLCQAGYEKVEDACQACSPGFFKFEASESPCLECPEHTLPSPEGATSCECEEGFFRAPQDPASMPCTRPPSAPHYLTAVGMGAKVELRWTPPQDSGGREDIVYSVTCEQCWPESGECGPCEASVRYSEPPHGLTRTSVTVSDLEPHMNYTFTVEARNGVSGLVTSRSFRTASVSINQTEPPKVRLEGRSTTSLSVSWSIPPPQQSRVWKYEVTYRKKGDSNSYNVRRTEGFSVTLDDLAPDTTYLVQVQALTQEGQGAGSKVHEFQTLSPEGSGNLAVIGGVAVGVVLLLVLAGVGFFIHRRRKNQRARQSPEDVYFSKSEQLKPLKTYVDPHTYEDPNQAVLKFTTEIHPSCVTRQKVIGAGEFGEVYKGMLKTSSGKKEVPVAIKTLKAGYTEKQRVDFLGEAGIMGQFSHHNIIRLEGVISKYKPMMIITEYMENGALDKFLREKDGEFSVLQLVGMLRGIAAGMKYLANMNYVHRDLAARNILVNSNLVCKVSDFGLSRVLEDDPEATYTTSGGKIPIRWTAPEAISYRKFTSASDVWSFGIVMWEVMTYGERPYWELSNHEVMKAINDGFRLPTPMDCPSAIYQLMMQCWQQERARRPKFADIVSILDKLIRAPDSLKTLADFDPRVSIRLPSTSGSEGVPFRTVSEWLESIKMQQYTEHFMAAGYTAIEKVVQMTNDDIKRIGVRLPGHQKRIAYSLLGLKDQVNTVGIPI
T2 sequence (P00533 669-1210): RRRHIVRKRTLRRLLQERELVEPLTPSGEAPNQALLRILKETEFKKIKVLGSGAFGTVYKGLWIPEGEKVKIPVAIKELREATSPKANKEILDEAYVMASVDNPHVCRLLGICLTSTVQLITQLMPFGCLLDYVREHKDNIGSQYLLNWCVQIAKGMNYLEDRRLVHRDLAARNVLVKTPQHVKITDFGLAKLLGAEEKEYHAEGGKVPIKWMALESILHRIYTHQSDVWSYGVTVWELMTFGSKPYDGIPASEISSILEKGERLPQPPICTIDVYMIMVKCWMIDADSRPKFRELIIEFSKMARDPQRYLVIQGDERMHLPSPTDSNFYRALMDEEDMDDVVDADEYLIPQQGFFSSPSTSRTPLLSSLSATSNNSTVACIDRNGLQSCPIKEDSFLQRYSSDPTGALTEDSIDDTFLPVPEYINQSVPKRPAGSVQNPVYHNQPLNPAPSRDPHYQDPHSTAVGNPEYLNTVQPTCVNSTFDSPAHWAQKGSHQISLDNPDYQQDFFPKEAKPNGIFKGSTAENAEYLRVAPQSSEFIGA

With `CCOc1cc2ncc(C#N)c(Nc3ccc4cn[nH]c4c3)c2cc1OCC` [Example 99, 6,7-Diethoxy-4-(1H-indazol-6-ylamino)-quinoline-3-carbonitrile], the IC50 is 0.032 µg/mL (≈ 0.0857 µM) in [1]; 0.036 µg/mL (≈ 0.0964 µM) in [2]; 0.02 µg/mL (≈ 0.0536 µM) in [4]; 0.016 µg/mL (≈ 0.0428 µM) in series [5]; 0.033 µg/mL (≈ 0.0884 µM) in series [6]; 0.025 µg/mL (≈ 0.0669 µM) in [7]. Also, the IC50 in [8] is 21.4 µM. Besides, the “S/T = No. Survivors/No. Treated on Day +21 post tumor staging” value in [3] (3 mg/kg/dose IP) is listed as 5/5; in series [3] (10 mg/kg/dose IP) it was 5/5; in [3] (30 mg/kg/dose IP), 4/5. In addition, the “%T/C Day 7” value worked out at 93% in series [3] (3 mg/kg/dose IP), 90% in series [3] (10 mg/kg/dose IP) and 44% in [3] (30 mg/kg/dose IP). Moreover, the “%T/C Day 14” value is listed as 108% in series [3] (3 mg/kg/dose IP), 68% in series [3] (10 mg/kg/dose IP) and 33% in series [3] (30 mg/kg/dose IP). Moreover, the results for the “Relative Tumor Growth Day 14” value in [3] (3 mg/kg/dose IP), in series [3] (10 mg/kg/dose IP) and in series [3] (30 mg/kg/dose IP) were 12.53, 7.88 and 3.85, respectively. The “%T/C Day 21” value in series [3] (3 mg/kg/dose IP) is given as 147%; in series [3] (10 mg/kg/dose IP), 87%; in [3] (30 mg/kg/dose IP), 40%. Besides, the “Relative Tumor Growth Day 21” value was 16.47 in [3] (3 mg/kg/dose IP), 9.75 in [3] (10 mg/kg/dose IP) and 4.44 in [3] (30 mg/kg/dose IP). Moreover, the “Relative Tumor Growth Day 7” value in [3] (10 mg/kg/dose IP) is on record as 3.69; in series [3] (30 mg/kg/dose IP) it was 1.81. Besides, the “tumor growth was inhibited by” value is reported as 56% in series [3] (day 7), 67% in series [3] (day 14) and 60% in series [3] (day 21).
On to `CCOc1cc2ncc(C#N)c(Nc3ccc4c(C)cc(=O)oc4c3)c2cc1OCC` [Example 100, 6,7-Diethoxy-4-(4-methyl-2-oxo-2H-chromen-7-ylamino)-quinoline-3-carbonitrile], for which the IC50 in [1] is 0.27 µg/mL (≈ 0.65 µM); in series [2], 0.249 µg/mL (≈ 0.599 µM); in series [9], over 48.2 µM; in [4], 0.067 µg/mL (≈ 0.161 µM); in [5], 0.429 µg/mL (≈ 1.03 µM); in [6], 0.325 µg/mL (≈ 0.782 µM). For the same compound, the IC50 is 0.369 µg/mL (≈ 0.888 µM) in [7], over 72.3 µM in series [8] and 3.5 µM in series [10].
Take `CCOc1cc2ncc(C#N)c(Nc3ccc4cc[nH]c4c3)c2cc1OCC` [Example 101, 6,7-Diethoxy-4-(1H-indol-6-ylamino)-quinoline-3-carbonitrile]: the IC50 in series [11] is 1.53 µg/mL (≈ 4.11 µM); in series [1], 0.231 µg/mL (≈ 0.62 µM); in series [2], 0.313 µg/mL (≈ 0.84 µM); in series [12] it was 0.933 µg/mL (≈ 2.51 µM); in [13], over 1 µM; in series [9], over 53.7 µM. In addition, the IC50 in series [6] stood at 0.326 µg/mL (≈ 0.875 µM); in series [7], 0.216 µg/mL (≈ 0.58 µM); in series [8], 5.37 µM. The inhibition at 0.5 µM in series [13] turned out to be 27%.
Regarding `COc1cc2ncc(C#N)c(Nc3ccc4cn[nH]c4c3)c2cc1OC` [Example 102, 6,7-Dimethoxy-4-(1H-indazol-6-ylamino)-quinoline-3-carbonitrile], the IC50 in series [1] was 1.49 µg/mL (≈ 4.32 µM); in series [2] it was 3.05 µg/mL (≈ 8.84 µM); in series [9], over 56.4 µM; in series [4] it was 0.49 µg/mL (≈ 1.42 µM); in [5], 0.78 µg/mL (≈ 2.26 µM); in series [6], 2.18 µg/mL (≈ 6.31 µM). Further, the figures for the IC50 in [7] and in [8] were 1.31 µg/mL (≈ 3.79 µM) and 14.1 µM, respectively.
Take `CCOc1cc2ncc(C#N)c(Nc3ccc4[nH]nnc4c3)c2cc1OCC` [Example 103, 4-(1H-Benzotriazol-5-ylamino)-6,7-diethoxy-quinoline-3-carbonitrile]: the IC50 in [1] is 2.39 µg/mL (≈ 6.39 µM); in [2], 2.69 µg/mL (≈ 7.18 µM); in [9], over 53.4 µM; in [4], 0.309 µg/mL (≈ 0.825 µM); in series [5], 0.767 µg/mL (≈ 2.05 µM); in [6], 2.64 µg/mL (≈ 7.04 µM). This compound came in with an IC50 in [7] of 1.61 µg/mL (≈ 4.3 µM).
Regarding `CCOc1cc2ncc(C#N)c(Nc3ccc4c(c3)C(=O)NC4=O)c2cc1OCC` [Example 104, 4-(1,3-Dioxo-2,3-dihydro-1H-isoindol-5-ylamino)-6,7-diethoxy-quinoline-3-carbonitrile], the IC50 in [1] is 0.044 µg/mL (≈ 0.109 µM); in series [2], 0.107 µg/mL (≈ 0.266 µM); in [9] it was over 49.7 µM; in series [4], 0.021 µg/mL (≈ 0.0522 µM); in series [5], 0.034 µg/mL (≈ 0.0845 µM); in series [6] it was 0.207 µg/mL (≈ 0.514 µM). For the same compound, the IC50 was 0.049 µg/mL (≈ 0.122 µM) in series [7], over 74.6 µM in series [8] and 35 µM in series [10].
As for `CCOc1cc2ncc(C#N)c(Nc3ccc4c(c3)C(=O)NCC(=O)N4C)c2cc1OCC` [Example 127, 6,7-Diethoxy-4-(1-methyl-2,5-dioxo-2,3,4,5-tetrahydro-1H-benzo[e][1,4]diazepin-7-ylamino)-quinoline-3-carbonitrile], the IC50 is over 5 µg/mL in series [11]; over 5 µg/mL in series [12]; over 1 µM in series [13]; over 44.9 µM in series [9]; over 5 µg/mL in series [4]; over 5 µg/mL in [5]. Also, the IC50 in [6] is over 5 µg/mL; in [7] it was over 5 µg/mL; in series [8], over 67.3 µM; in series [10], over 100 µM. Further, the inhibition at 0.5 µM in series [13] came out at 25%.
